In patent US11014898B1, “Benzothiazepine compounds and their use as bile acid modulators” (Albireo AB, priority 2020, dated 2021):

Columns and labels:
[1] = Bioavailability studies (iv and oral dosing, plasma LC-MS/MS); type: in vivo, mice (C57BL/6); conditions: male, mouse, C57BL/6 mice, single oral dose of 10 mg/kg, single intravenous dose of 1 mg/kg
Experimental: Male mice (C57BL/6 or CD1) or Wistar rats of 8-9 weeks old were used. For each test compound, two groups of 3 animals each were used. One group was administered a single intravenous dose of 1 mg/kg (vehicle 100% DMSO) through the tail vein and the other group was administered a single oral dose of 10 mg/kg through gavage needle. The group that was administered an oral dose was fasted overnight. Blood samples were collected after 0.083, 0.25, 0.5, 1, 2, 4, 6, 8 and 24 hours following intravenous administration, and after 0.25, 0.5, 1, 2, 4, 6, 8 and 24 hours following oral administration. Blood samples were taken from saphenous vein. 0.2% EDTA was used as the anticoagulant. The samples were analyzed by a discovery grade bioanalytical method developed for the estimation of test compound in plasma, using an LC-MS/MS system.

[2] = Bidirectional permeability assay (Caco-2 cells); type: in vitro ADME; conditions: human, Caco-2, pH 7.4, 10 μM in FaSSIF buffer, 120 minutes at 37° C.; for Papp A→B at 120 min, 10 μM: absorptive direction (A2B); for Papp B→A at 120 min, 10 μM: secretory direction (B2A)
Experimental: Caco-2 cells (Evotec) were seeded at a density of 70,000 cells/well in Millicell® 24-well cell culture insert plates and maintained in an incubator (37° C., 5% CO2, 95% RH) for 21 days with media change on alternate days.
Stock solutions (10 mM) of the test compounds, atenolol (low permeability marker), propranolol (high permeability marker) and digoxin (substrate for P-gp transport pathway) were prepared in dimethylsulfoxide (DMSO). An intermediate stock solution (1 mM) was prepared by diluting 10 μL of 10 mM master stock solution with 90 μL of neat DMSO. A working stock solution (10 μM) was prepared by diluting 50 μL of 1 mM with 4950 μL of FaSSIF buffer. Post addition of compounds to the FaSSIF, samples were subjected to sonication for 2 hours, and centrifuged at 4000 RPM for 30 minutes at 37° C. The 4 mL of resultant supernatant was directly used in the assay. The final DMSO concentration in the transport experiments was 1%.
On the day of assay, Caco-2 monolayers were washed twice with transport buffer (HBSS, pH 7.4) and pre-incubated for 30 min (37° C., 5% CO2, 95% RH) in an incubator. The electrical resistance of the monolayers was measured with a Millicell®-ERS system. Monolayers with trans-epithelial electrical resistance (TEER) values greater than 350 ohm·cm^2 were selected for the assay.
The assay was conducted in absorptive direction (A2B) and secretory (B2A) directions. Transport experiments were initiated by addition of transport assay buffer (FaSSIF buffer prepared in HBSS) consisting of compounds to the donor compartment (apical chamber A-B; basolateral chamber B-A) in duplicate (n=2) wells. Drug free HBSS buffer (pH 7.4) containing 1% bovine serum albumin (BSA) was introduced to the receiver (A-B-basolateral; B-A-Apical) compartments. The volumes of apical and basolateral compartments were 0.4 and 0.8 mL, respectively. After adding dosing solution, plates were incubated in an incubator for 120 minutes at 37° C. After 120 minutes, donor and receiver samples were collected and matrix matched (1:1, 30 μL study sample+30 μL blank buffer) with the opposite buffer. Dosing samples matrix matched (1:1, 30 μL study sample+30 μL blank buffer) with the opposite buffer. Samples were processed by adding acetonitrile containing internal standard (60 μL study sample+200 μL acetonitrile containing internal standard-Tolbutamide, 500 ng/mL). Samples were vortexed and centrifuged at 4000 rpm for 10 minutes. The obtained supernatant (100 μL) was diluted with 100 μL of water and transferred to fresh 96 well plates. The concentration of compounds in the samples was analyzed by liquid chromatography tandem mass spectrometry (LC-MS/MS) method using discovery grade bio-analytical method, as applicable.
The mean apparent permeability (Papp×10^−6 cm/sec) of the test compounds, atenolol, propranolol and digoxin were calculated as follows:
where dq/dt=rate of transport (rate of transport of compound in the receiver compartment), C0=initial concentration in the donor compartment, A=surface area of the effective filter membrane.

Human IBAT = target: T1, Human IBAT (Homo sapiens, UniProt Q12908); assay: IBAT (h) assay: 3H-taurocholic acid uptake in human IBAT-overexpressing cells; type: cell-based; conditions: 0.25 μM 3H-taurocholic acid and 5 μM cold taurocholic acid, 20 minutes, read-out: hIBAT IC50
T1 construct: expressed in transfected cells; cells kept under Puromycin selection
T1 sequence (Q12908 1-348): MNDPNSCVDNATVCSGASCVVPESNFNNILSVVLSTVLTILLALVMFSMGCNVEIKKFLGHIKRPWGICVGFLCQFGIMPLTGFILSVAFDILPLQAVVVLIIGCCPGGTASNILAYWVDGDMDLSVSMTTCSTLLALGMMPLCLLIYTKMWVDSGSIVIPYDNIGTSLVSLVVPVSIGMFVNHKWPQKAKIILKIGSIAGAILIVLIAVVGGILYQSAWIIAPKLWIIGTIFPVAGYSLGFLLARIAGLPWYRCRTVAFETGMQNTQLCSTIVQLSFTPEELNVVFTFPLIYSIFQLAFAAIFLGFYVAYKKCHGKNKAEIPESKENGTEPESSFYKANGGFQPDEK
Experimental: 10,000 cells (Human or Mouse IBAT-overexpressing cells) were seeded in 96-wells plate (Corning CLS3809) in 200 μL MEM-alpha medium (Gibco 12571-063) supplemented with 10% FBS (Gibco 10438026) containing Puromycin (Gibco A1113803) (10 μg/mL) and incubated at 37° C. in 5% CO2 for 48 hours. After incubation, media was decanted from the wells and cells were washed two times with 300 μL of basal MEM-alpha medium (FBS-free). After decanting basal MEM-alpha medium each time, plates were tapped against paper towel to ensure maximum removal of residual media. Test inhibitor dilutions (highest test concentration being 10 μM, 3-fold serial dilution, 10 points) prepared in DMSO (Sigma D2650) were added in incubation mix (maintaining 0.2% final DMSO concentration) containing 0.25 μM 3H-taurocholic acid (ARC ART-1368) and 5 μM of cold taurocholic acid (Sigma T4009). 50 μL of incubation mix containing test inhibitors was then added to the wells (in duplicate) and the plates were incubated for 20 minutes in a CO2 incubator at 37° C. After incubation, the reaction was stopped by keeping the plates on ice water mix for 2-3 minutes and then the incubation mix was aspirated completely from the wells. The wells were washed two times with 250 μL of chilled unlabelled 1 mM taurocholic acid dissolved in HEPES (Gibco 15630080)-buffered (10 mM) HBSS (Gibco 14175079) (pH 7.4). The plates were tapped against a paper towel after every wash to ensure maximum removal of blocking buffer.
(§1) 100 μL of MicroScint-20 (PerkinElmer 6013621) was added to the wells and kept overnight at room temperature before reading the plates in TopCount NXT™ Microplate Scintillation and Luminescence Counter from PerkinElmer under 3H Test protocol (set at 120 seconds reading time per well).
(§2) All test compounds were provided in powder form at room temperature. 10 mM DMSO stocks of the test compounds were prepared, aliquoted and stored at −20° C. From the 10 mM DMSO stock of the compounds, a 3-fold serial dilution in DMSO was prepared to get a total of 10 dilutions of the test compounds. 0.5 μL of this dilution in DMSO was added to 250 μL of FBS-free basal media containing 3H-taurocholic acid and cold taurocholic acid to prepare the incubation mixture.

Human LBAT = target: T2, Human LBAT (Homo sapiens, UniProt Q14973); assay: LBAT (h) assay: 3H-taurocholic acid uptake in human LBAT-overexpressing cells; type: cell-based; conditions: 0.3 μM 3H-taurocholic acid and 7.5 μM cold taurocholic acid, 20 minutes, read-out: hLBAT IC50
T2 construct: expressed in transfected cells; cells kept under Geneticin selection
T2 sequence (Q14973 1-349): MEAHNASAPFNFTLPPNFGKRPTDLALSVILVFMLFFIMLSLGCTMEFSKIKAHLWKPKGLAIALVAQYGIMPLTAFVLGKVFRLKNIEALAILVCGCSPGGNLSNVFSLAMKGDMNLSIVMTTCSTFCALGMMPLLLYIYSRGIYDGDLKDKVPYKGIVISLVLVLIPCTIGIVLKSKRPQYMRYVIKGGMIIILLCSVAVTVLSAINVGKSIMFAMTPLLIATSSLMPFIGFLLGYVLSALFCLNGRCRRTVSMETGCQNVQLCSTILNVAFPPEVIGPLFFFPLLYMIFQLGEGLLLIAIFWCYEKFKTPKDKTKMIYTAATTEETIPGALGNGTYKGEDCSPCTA
Experimental: 20,000 cells (Human or Mouse LBAT-overexpressing cells) were seeded in 96-wells plate (Corning CLS3809) in 100 μL MEM-alpha medium (Gibco 12571-063) supplemented with 10% FBS (Gibco 10438026) containing Geneticin (Gibco 10131-027) (1 mg/mL) and incubated at 37° C. in 5% CO2 for 24 hours. After incubation, media was decanted from the wells and cells were washed two times with 300 μL of basal MEM-alpha medium (FBS-free). After decanting basal MEM-alpha medium each time, plates were tapped against paper towel to ensure maximum removal of residual media. For human LBAT, incubation mix was prepared by adding test inhibitor dilutions (3-fold serial dilution in DMSO (Sigma D2650), 10 points) in MEM-alpha (without FBS) containing 0.3 μM 3H-taurocholic acid (ARC ART-1368) and 7.5 μM cold taurocholic acid (Sigma T4009) (maintaining 0.2% final DMSO concentration). For mouse LBAT, incubation mix was prepared by adding test inhibitor dilutions (3-fold serial dilution in DMSO, 10 points) in MEM-alpha (without FBS) containing 0.3 μM 3H-taurocholic acid and 25 μM cold taurocholic acid maintaining 0.2% final DMSO concentration).
50 μL of incubation mix containing test inhibitors was then added to the wells (in duplicate) and the plates were incubated for 20 minutes in a CO2 incubator at 37° C. After incubation, the reaction was stopped by keeping the plates on ice water mix for 2-3 minutes and then the incubation mix was aspirated completely from the wells. The wells were washed two times with 250 μL of chilled unlabelled 1 mM taurocholic acid dissolved in HEPES (Gibco 15630080)-buffered (10 mM) HBSS (Gibco 14175079) (pH 7.4). The plates were tapped against a paper towel after every wash to ensure maximum removal of blocking buffer.
as §1, with “well, with normal plate orientation).” for “well).”
as §2

Row | SMILES | bioavailability [1] | Papp A→B at 120 min, 10 μM [2] | Papp B→A at 120 min, 10 μM [2] | IC50 (Human IBAT) | IC50 (Human LBAT)
1 | CCCCC1(CC)CN(c2ccccc2)c2cc(N(C)C)c(OCC(=O)O)cc2S(=O)(=O)C1 (single isomer, unassigned) [Example 8, 2-((3-butyl-7-(dimethylamino)-3-ethyl-1,1-dioxido-5-phenyl-2,3,4,5-tetrahydro-1,5-benzothiazepin-8-yl)oxy)acetic Acid] | 26% | 7.9 ×10⁻⁶ cm/s | 23.7 ×10⁻⁶ cm/s | 9 nM | –
2 | CCCCC1(CC)CN(c2ccc(O)cc2)c2cc(SC)c(OCC(=O)O)cc2S(=O)(=O)C1 (single isomer, unassigned) [Example 20, 2-((3-butyl-3-ethyl-5-(4-hydroxyphenyl)-7-(methylthio)-1,1-dioxido-2,3,4,5-tetrahydro-1,5-benzothiazepin-8-yl)oxy)acetic Acid] | – | – | – | 14 nM | 751 nM
3 | CCCCC1(CCCC)CN(c2ccc(C#N)cc2)c2cc(SC)c(OCC(=O)O)cc2S(=O)(=O)C1 [Example 5, 2-((3,3-dibutyl-5-(4-cyanophenyl)-7-(methylthio)-1,1-dioxido-2,3,4,5-tetrahydro-1,5-benzothiazepin-8-yl)oxy)acetic Acid] | 6% | 5.5 ×10⁻⁶ cm/s | 14.5 ×10⁻⁶ cm/s | 58 nM | –
4 | CCCCC1(CCCC)CN(c2ccc(C(F)(F)F)cc2)c2cc(SC)c(OCC(=O)O)cc2S(=O)(=O)C1 [Example 6, 2-((3,3-dibutyl-7-(methylthio)-1,1-dioxido-5-(4-(trifluoromethyl)phenyl)-2,3,4,5-tetrahydro-1,5-benzothiazepin-8-yl)oxy)acetic Acid] | – | – | – | 59 nM | 3610 nM
5 | CCCCC1(CCCC)CN(c2ccccc2)c2cc(F)c(OCC(=O)O)cc2S(=O)(=O)C1 [Example 10, 2-((3,3-dibutyl-7-fluoro-1,1-dioxido-5-phenyl-2,3,4,5-tetrahydro-1,5-benzothiazepin-8-yl)oxy)acetic Acid] | – | – | – | 179 nM | 1070 nM
6 | CCCCC1(CCCC)CN(c2ccccc2)c2cc(C#N)c(OCC(=O)O)cc2S(=O)(=O)C1 [Example 11, 2-((3,3-dibutyl-7-cyano-1,1-dioxido-5-phenyl-2,3,4,5-tetrahydro-1,5-benzothiazepin-8-yl)oxy)acetic Acid] | – | – | – | 281 nM | 2530 nM
7 | CCCCC1(CC)CN(c2ccccc2)c2cc(F)c(OCC(=O)O)cc2S(=O)(=O)C1 (centres unmarked) [Example 12, 2-((3-butyl-3-ethyl-7-fluoro-1,1-dioxido-5-phenyl-2,3,4,5-tetrahydro-1,5-benzothiazepin-8-yl)oxy)acetic Acid] | – | – | – | 350 nM | 473 nM
8 | CCCCC1(CCCC)CN(c2ccccc2)c2cc(Cl)c(OCC(=O)O)cc2S(=O)(=O)C1 [Example 13, 2-((3,3-dibutyl-7-chloro-1,1-dioxido-5-phenyl-2,3,4,5-tetrahydro-1,5-benzothiazepin-8-yl)oxy)acetic Acid] | – | – | – | 268 nM | 1620 nM
